Like-named read-outs stand apart in the source and are kept apart here.
What was measured:
[1] = tested on: Pseudotyped vesicular stomatitis virus (VSV) carrying a codon-optimized S protein of the Wuhan SARS-CoV-2 strain; type: cell-based; settings: read-out: IC50 (µM) Pseudotype VSV (Vero)
[2] = tested on: Pseudotyped vesicular stomatitis virus (VSV) carrying a codon-optimized S protein of the Wuhan SARS-CoV-2 strain; type: cell-based; settings: read-out: IC50 (µM) Pseudotype VSV (A549ACE2-TM PRSS2)
[3] = in vitro; settings: human, a549-ace2-tmprss2 cells
[4] = in vitro; settings: monkey, vero cells
[5] = in vitro; settings: monkey, vero-e6 cells

SMILES	IC50 [1]	IC50 [2]	CC50 [3]	CC50 [4]	CC50 at 24 h [5]
NCC(=O)NC(CCC(=O)N[C@@H](Cc1c(Sc2ccc(C(F)(F)F)cc2)[nH]c2ccccc12)C(=O)O)(CCC(=O)N[C@@H](Cc1c(Sc2ccc(C(F)(F)F)cc2)[nH]c2ccccc12)C(=O)O)CCC(=O)N[C@@H](Cc1c(Sc2ccc(C(F)(F)F)cc2)[nH]c2ccccc12)C(=O)O [Compound 7d]	15.1 µM	9.35 µM	> 100 µM	> 100 µM	
NCC(=O)NC(CCC(=O)N[C@@H](Cc1c(Sc2ccc(F)cc2)[nH]c2ccccc12)C(=O)O)(CCC(=O)N[C@@H](Cc1c(Sc2ccc(F)cc2)[nH]c2ccccc12)C(=O)O)CCC(=O)N[C@@H](Cc1c(Sc2ccc(F)cc2)[nH]c2ccccc12)C(=O)O [Compound 7f]	28.4 µM	31 µM	> 100 µM	> 100 µM	
CC(=O)c1ccc(Sc2[nH]c3ccccc3c2C[C@H](NC(=O)CCC(CCC(=O)N[C@@H](Cc2c(Sc3ccc(C(C)=O)cc3)[nH]c3ccccc23)C(=O)O)(CCC(=O)N[C@@H](Cc2c(Sc3ccc(C(C)=O)cc3)[nH]c3ccccc23)C(=O)O)NC(=O)CN)C(=O)O)cc1 [Compound 7c]	1.4 µM	1.94 µM	> 100 µM	> 100 µM	> 100 µM
N#Cc1ccc(Sc2[nH]c3ccccc3c2C[C@H](NC(=O)CCC(CCC(=O)N[C@@H](Cc2c(Sc3ccc(C#N)cc3)[nH]c3ccccc23)C(=O)O)(CCC(=O)N[C@@H](Cc2c(Sc3ccc(C#N)cc3)[nH]c3ccccc23)C(=O)O)NC(=O)CN)C(=O)O)cc1 [Compound 7e]	13.9 µM	8.8 µM	> 100 µM	> 100 µM	
NCC(=O)NC(CCC(=O)N[C@@H](Cc1c(Sc2ccc([N+](=O)[O-])cc2)[nH]c2ccccc12)C(=O)O)(CCC(=O)N[C@@H](Cc1c(Sc2ccc([N+](=O)[O-])cc2)[nH]c2ccccc12)C(=O)O)CCC(=O)N[C@@H](Cc1c(Sc2ccc([N+](=O)[O-])cc2)[nH]c2ccccc12)C(=O)O [Compound 7a]	0.23 µM	2.4 µM	> 100 µM	> 100 µM	> 100 µM
NCC(=O)NC(CCC(=O)N[C@@H](Cc1c(Sc2cccc([N+](=O)[O-])c2)[nH]c2ccccc12)C(=O)O)(CCC(=O)N[C@@H](Cc1c(Sc2cccc([N+](=O)[O-])c2)[nH]c2ccccc12)C(=O)O)CCC(=O)N[C@@H](Cc1c(Sc2cccc([N+](=O)[O-])c2)[nH]c2ccccc12)C(=O)O [Compound 7b]	13 µM	6.44 µM	> 100 µM	> 100 µM	

Reference: EP4122917A1, “C2-THIOETHER […] AND TETRAMERS AND USE THEREOF” (priority 2021, dated 2023)
